Patent US20240190872A1, “FABI INHIBITORS FOR GRAM-NEGATIVE PATHOGENS” (THE BOARD OF TRUSTEES OF THE UNIVERSITY OF ILLINOIS, priority 2021, published 2024)
In brackets after ≈: the same amount, converted by molar mass.

What was measured:
[1] = test system: S. aureus ATCC 29213; assay: Antimicrobial susceptibility test (MIC), micro-dilution broth; assay type: cell-based; conditions: S. aureus ATCC 29213
Text: (§1) Bacterial strains. S. aureus ATCC 29213, E. coli MG1655, E. coli BAA-2340, E. coli BAA-2469, E. coli BAA-2471, E. cloacae BAA-2341, E. cloacae BAA-2468, K. pneumoniae BAA-1705, K. pneumoniae BAA-2342, K. pneumoniae BAA-2470, K. pneumoniae BAA-2472, and K. pneumoniae BAA-2473 were obtained from ATCC. E. coli JW5503 and E. coli JW3596 were obtained from the KEIO Collection. E. cloacae ATCC 29893 was provided by W. van der Donk (UIUC). E. coli AR-0346, E. coli AR-0349, E. coli AR-0493, E. coli AR-0495, and K. pneumoniae AR-0347 were obtained from the CDC and FDA AR Isolate Bank. E. coli F20987, E. coli M66623, E. cloacae S28901.1, K. pneumoniae M14723, K. pneumoniae M67198, K. pneumoniae M67297, K. pneumoniae S20595, K. pneumoniae S47889, A. baumannii W41979, A. baumannii F19521, A. baumannii M13100, and A. baumannii WO22 were obtained from the University of Illinois Chicago Medical School. A. baumannii KB304, A. baumannii KB343, and A. baumannii KB357 were provided by J. Quale.
(§2) Antimicrobial susceptibility tests. Susceptibility testing was performed in biological triplicate, using the micro-dilution broth method as outlined by the Clinical and Laboratory Standards Institute. Bacteria were cultured with cation-adjusted Muller-Hinton broth (Sigma-Aldrich, Cat# 90922) in round-bottom 96-well plates (Corning, Cat# 3788). Human serum (pooled gender, 0.2 μm filtered) was purchased from BioIVT (Hicksville, NY).

[2] = test system: E. coli ΔtolC (JW5503); assay type: cell-based; conditions: efflux deficient E. coli ΔtolC
Procedure: (§3) The compounds synthesized, shown in Table 1, were evaluated against Gram-positive and Gram-negative reference strains (S. aureus 29213 and E. coli MG1655, respectively), as well as an efflux deficient E. coli strain (ΔtolC, JW5503).
as §1, §2

[3] = test system: E. coli MG1655; assay: Antimicrobial susceptibility test (MIC); assay type: cell-based; conditions: E. coli MG1655
Text: as §1, §2

[4] = test system: K. pneumoniae BAA 2472; assay: microbe, parasite or virus in culture; assay type: cell-based; conditions: clinical isolate
Procedure: as §3, §1, §2

[5] = test system: A. baumannii AR 0033; assay: microbe, parasite or virus in culture; assay type: cell-based; conditions: clinical isolate
Procedure: as §2

[6] = test system: A. baumannii AR 0273; assay: microbe, parasite or virus in culture; assay type: cell-based; conditions: clinical isolate
Procedure: as §2

[7] = test system: A. baumannii AR 0299; assay: microbe, parasite or virus in culture; assay type: cell-based; conditions: clinical isolate
Procedure: as §2

[8] = test system: A. baumannii AR 0313; assay: microbe, parasite or virus in culture; assay type: cell-based; conditions: clinical isolate
Procedure: as §2

[9] = test system: E. coli AR 0048; assay: microbe, parasite or virus in culture; assay type: cell-based; conditions: clinical isolate
Procedure: as §2

[10] = test system: E. coli AR 0085; assay: microbe, parasite or virus in culture; assay type: cell-based; conditions: clinical isolate
Procedure: as §2

[11] = test system: K. pneumoniae AR 0066; assay: microbe, parasite or virus in culture; assay type: cell-based; conditions: clinical isolate
Procedure: as §2

[12] = test system: K. pneumoniae AR 0113; assay: microbe, parasite or virus in culture; assay type: cell-based; conditions: clinical isolate
Procedure: as §2

[13] = test system: K. pneumoniae AR 0560; assay: microbe, parasite or virus in culture; assay type: cell-based; conditions: clinical isolate
Procedure: as §2

[14] = biological target: A. baumannii FabI (Acinetobacter baumannii, UniProt D0CAD5); assay: biochemical; conditions: purified FabI, apparent inhibition constant; read-out: A. baumannii FabI Ki^app
Procedure: Mode of Action. To probe the effects of varying ring systems and amine placement on FabI target engagement, the apparent inhibition constants (Ki^app) for select compounds were determined using purified FabI. The goal of these studies was two-fold, to comparatively assess fabimycin, Debio-1452-NH3, and Debio-1452, and to also assess differential activity against the E. coli and A. baumannii versions of FabI. FabI from E. coli and A. baumannii were recombinantly expressed and purified, and the ability for each compound to inhibit the activity of these enzymes was evaluated using a standard FabI enzyme assay.
In vitro FabI inhibition assay. NADH (Sigma-Aldrich, Cat# N8129) and crotonoyl-CoA (Sigma-Aldrich, Cat# 28007) were both diluted into activity buffer [100 mM potassium glutamate (pH 7.8)], and working solution was dispensed into two columns of round-bottom 96-well plate (330 μL per well). Inhibitors, dissolved in DMSO at 200× final concentration, were added to each well via multichannel pipette (2.48 μL per well). After thorough mixing, this mixture was transferred to UV-transparent plate (UV-STAR half-area 96-well plate, Greiner Bio-One, Cat#675801, 100 μL per well, three technical replicates per inhibitor concentration). Plate was placed in plate-reader (SpectraMax 190, Molecular Devices) under temperature control (25° C.), and temperature was allowed to equilibrate. Fresh aliquot of enzyme from −80° C. was thawed on ice and diluted in activity buffer. Enzyme working solution was added to plate (50 μL per well, 20 nM enzyme final). After shaking for 5 s, reaction progress was monitored by absorbance at 340 nm every 15 s for 90 min. Linear portion of reaction progress curve was fit using plate-reader software (SoftMax Pro 7.0). Percent activity was calculated relative to DMSO-only and no-enzyme controls in each plate. Percent activity curves were fit to Morrison's quadratic using Graphpad Prism 6.0 to obtain apparent Ki.

[15] = test system: IMR90; assay: Toxicity screen against mammalian cell lines (72 h), Alamar Blue; assay type: cell-based
Procedure: Cell culture. IMR90 cells were obtained from ATCC. IMR90 cells were grown in EMEM with 10% fetal bovine serum (Gemini Benchmark, Cat# 100-106), 100 U/mL penicillin, and 100 μg/mL streptomycin. All cells were cultured at 37° C. in a 5% CO2 environment. Media was prepared by the Univeristy of Illinois School of Chemical Sciences Cell Media Facility. Sex and age of cell lines: IMR90 ([…]).
Cell viability. Cells seeded (IMR90: 5,000 cells/well) a 96-well plate (Greiner Bio-One, Cat# 655180) and were allowed to attach overnight. […] Raptinal (100 μM) was used as a dead control. After 24 h post-treatment, media was exchanged with compound-free media. […] Stock Alamar Blue solution [10 μL, 440 μM resazurin (Sigma-Aldrich, Cat# R7017) in sterile 1×PBS] was added to each well, and plate was incubated […]. Conversion of Alamar Blue was measured with plate reader (SpectraMax M3, Molecular Devices) by fluorescence (ex 555 nm, em 585 nm, cutoff 570 nm, autogain). Percent death was determined by normalizing to DMSO-treated cells and raptinal-treated cells.

[16] = test system: Hep G2; assay: Toxicity screen against mammalian cell lines (72 h); assay type: cell-based
[17] = in vivo; conditions: female, C57BL/6, mouse, in vivo, ip
Procedure: Mouse MTD of Debio-1452-NH3. The protocol was approved by the IACUC at the University of Illinois at Urbana-Champaign (Protocol Number:16144). In these studies, 10- to 12-week-old female C57BL/6 mice purchased from Charles River were used. The maximum tolerate dose (MTD) of single compound was determined first. Debio-1452 amine analogues were formulated in 20% sulfobutyl ether β-cyclodextrin in sterile water. Debio-1452-NH3 (1), and compounds 2 and 3 were given by IP injection and mice were monitored for signs of toxicity for 2 weeks (single dose). For multiple dose, the compound was given by daily IP for 5 consecutive days and mice were monitored for signs of toxicity for 1 month. MTD was the highest dosage with acceptable toxicity (e.g. <20% weight loss). Single dose MTDs were initially determined. […] The MTD of Debio-1452-NH3 (1) was used to inform the dosing schedule used in subsequent efficacy studies.

Sequence of A. baumannii FabI (D0CAD5 1-288): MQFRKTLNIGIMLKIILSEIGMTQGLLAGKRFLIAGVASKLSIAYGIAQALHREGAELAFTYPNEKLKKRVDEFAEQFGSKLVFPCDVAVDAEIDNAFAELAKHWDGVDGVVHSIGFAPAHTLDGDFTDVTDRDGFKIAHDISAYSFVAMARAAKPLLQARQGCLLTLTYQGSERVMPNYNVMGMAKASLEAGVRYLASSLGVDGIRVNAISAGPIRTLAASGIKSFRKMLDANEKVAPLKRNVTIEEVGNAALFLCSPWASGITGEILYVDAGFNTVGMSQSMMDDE

| Compound | MIC S. aureus 29213 [1] | MIC E. coli ΔtolC [2] | MIC E. coli MG1655 [3] | MIC K. pneumoniae BAA 2472 [4] | MIC A. baumannii AR 0033 [5] | MIC A. baumannii AR 0273 [6] | MIC A. baumannii AR 0299 [7] | MIC A. baumannii AR 0313 [8] | MIC E. coli AR 0048 [9] | MIC E. coli AR 0085 [10] | MIC K. pneumoniae AR 0066 [11] | MIC K. pneumoniae AR 0113 [12] | MIC K. pneumoniae AR 0560 [13] | Ki [14] | IMR90 % Cell Death ([15]; 30 μM) | IMR90 % Cell Death ([15]; 100 μM) | Hep G2 % Cell Death ([16]; 30 μM) | Hep G2 % Cell Death ([16]; 100 μM) | MTD at 2 weeks [17] |
| --- | --- | --- | --- | --- | --- | --- | --- | --- | --- | --- | --- | --- | --- | --- | --- | --- | --- | --- | --- |
| Cc1c(CN(C)C(=O)/C=C/c2cnc3c(c2)CC2(CNC2)C(=O)N3)oc2ccccc12 [Compound 5] | 0.016 µg/mL (≈ 0.0384 µM) | 0.031 µg/mL (≈ 0.0744 µM) | 4 µg/mL (≈ 9.6 µM) | 8 µg/mL (≈ 19.2 µM) | 8 µg/mL (≈ 19.2 µM) | 8 µg/mL (≈ 19.2 µM) | 16 µg/mL (≈ 38.4 µM) | 16 µg/mL (≈ 38.4 µM) | 8 µg/mL (≈ 19.2 µM) | 4 µg/mL (≈ 9.6 µM) | 8 µg/mL (≈ 19.2 µM) | 16 µg/mL (≈ 38.4 µM) | 16 µg/mL (≈ 38.4 µM) | – | – | – | – | – | – |
| Cc1c(CN(C)C(=O)/C=C/c2cnc3c(c2)CC(CCNC(=O)OC(C)(C)C)C(=O)N3)oc2ccccc12 (centres unmarked) [Compound 10] | 0.002 µg/mL (≈ 0.00386 µM) | 0.031 µg/mL (≈ 0.0598 µM) | 8 µg/mL (≈ 15.4 µM) | 16 µg/mL (≈ 30.9 µM) | 16 µg/mL (≈ 30.9 µM) | 8 µg/mL (≈ 15.4 µM) | 8 µg/mL (≈ 15.4 µM) | 16 µg/mL (≈ 30.9 µM) | 8 µg/mL (≈ 15.4 µM) | 8 µg/mL (≈ 15.4 µM) | 32 µg/mL (≈ 61.7 µM) | 32 µg/mL (≈ 61.7 µM) | >32 µg/mL | – | – | – | – | – | – |
| (R,E)-3-(7-amino-8-oxo-6,7,8,9-tetrahydro-5H-pyrido[2,3]azepin-3-yl)-N-methyl-N-((3-methylbenzofuran-2-yl)methyl)acrylamide [(R)-11] | 0.125 µg/mL | 0.5 µg/mL | 64 µg/mL | >128 µg/mL | >128 µg/mL | >128 µg/mL | >128 µg/mL | >128 µg/mL | 128 µg/mL | 128 µg/mL | >128 µg/mL | >128 µg/mL | >128 µg/mL | 89 ± 11 nM | – | – | – | – | – |
| Cc1c(CN(C)C(=O)/C=C/c2ccc3c(c2)CCC(N)C(=O)N3)oc2ccccc12 (centres unmarked) | – | – | – | – | – | – | – | – | – | – | – | – | – | – | 8 ± 3% | 67 ± 2% | 12 ± 5% | 58 ± 10% | – |
| Cc1c(CN(C)C(=O)/C=C/c2cnc3c(c2)CC(CCN)C(=O)N3)oc2ccccc12.Cl (centres unmarked) [Compound 3, (E)-3-(6-(aminoethyl)-7-oxo-5,6,7,8-tetrahydro-1,8-naphthyridin-3-yl)-N-methyl-N-((3-methylbenzofuran-2-yl)methyl)acrylamide hydrochloride] | – | – | – | – | – | – | – | – | – | – | – | – | – | – | – | – | – | – | 100 mg/kg |
| Cc1c(CN(C)C(=O)/C=C/c2cnc3c(c2)CCC(CN)C(=O)N3)oc2ccccc12 (racemic) [(±)-12] | 0.031 µg/mL (≈ 0.0741 µM) | 0.125 µg/mL (≈ 0.299 µM) | 8 µg/mL (≈ 19.1 µM) | 32 µg/mL (≈ 76.5 µM) | 16 µg/mL (≈ 38.2 µM) | 32 µg/mL (≈ 76.5 µM) | 32 µg/mL (≈ 76.5 µM) | >32 µg/mL | 16 µg/mL (≈ 38.2 µM) | 8 µg/mL (≈ 19.1 µM) | 32 µg/mL (≈ 76.5 µM) | 32 µg/mL (≈ 76.5 µM) | 16 µg/mL (≈ 38.2 µM) | – | – | – | – | – | – |
| Cc1c(CN(C)C(=O)C=Cc2cnc3c(c2)CC2(CC(N)C2)C(=O)N3)oc2ccccc12 (mixture of isomers) [(±)-6] | 0.016 µg/mL | 0.062 µg/mL | 4 µg/mL | 8 µg/mL | 16 µg/mL | 16 µg/mL | 16 µg/mL | 32 µg/mL | 16 µg/mL | 16 µg/mL | 8 µg/mL | 16 µg/mL | 8 µg/mL | – | – | – | – | – | – |
